According to ChEMBL document CHEMBL1201862, “PubChem BioAssay data set” (2004):
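Step 1: Grow cells in 96-well plates. Step 2: Expose to compound for 48 hours at 5 concentrations. Step 3: Interpolate endpoints linearly; if unreached, use highest concentration. The concentration for 50% growth inhibition is given as GI50.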 The source made the active and inactive calls. Rule as the data show it: active = GI50 up to about 1.1 µM and inactive = higher. Where a SMILES comes first, the peptide text is derived from it. The star is where a group is joined. Boc = CC(C)(C)OC(=O)*

Columns and labels:
Experiment in all cases: NCI tumour cell line growth inhibition, 48 h
UACC-257 = system: UACC-257
SF-295 = system: SF-295
DU-145 = system: DU-145
T47D = system: T47D
K562 = system: K562
LOX IMVI = system: LOX IMVI
MCF7 = system: MCF7
HOP-92 = system: HOP-92
NCI-H460 = system: NCI-H460
TK-10 = system: TK-10
OVCAR-3 = system: OVCAR-3
RXF 393 = system: RXF 393
M14 = system: M14
HCT-116 = system: HCT-116
SF-268 = system: SF-268
CAKI-1 = system: CAKI-1
SK-OV-3 = system: SK-OV-3
SK-MEL-2 = system: SK-MEL-2
HL-60 = system: HL-60

Measured: GI50

CN(C)c1ccc(C(=C2C=CC(=[N+](C)C)C=C2)c2c(O)c(S(=O)(=O)[O-])cc3cc(S(=O)(=O)O)ccc23)cc1
inactive: UACC-257 > 100 µM | SF-295 > 100 µM | DU-145 > 100 µM | T47D > 100 µM | K562 > 100 µM | LOX IMVI > 100 µM | MCF7 > 100 µM | HOP-92 > 100 µM | NCI-H460 > 100 µM | TK-10 > 100 µM | OVCAR-3 > 100 µM | RXF 393 > 100 µM | M14 > 100 µM | HCT-116 > 100 µM | SF-268 > 100 µM | CAKI-1 > 100 µM | SK-OV-3 > 100 µM | SK-MEL-2 > 100 µM

CC(C)CC(Nc1c(O)ccc2ccccc12)C(=O)O (centres undefined)
inactive: UACC-257 20.5 µM | SF-295 20.5 µM | DU-145 19.2 µM | T47D 64.7 µM | K562 58.7 µM | LOX IMVI 31.7 µM | MCF7 41.2 µM | HL-60 34.2 µM | NCI-H460 35.2 µM | TK-10 39.9 µM | OVCAR-3 20.7 µM | RXF 393 12.9 µM | M14 37.8 µM | HCT-116 27.9 µM | SF-268 24.7 µM | CAKI-1 21.2 µM | SK-OV-3 27.2 µM | SK-MEL-2 17.1 µM

Nc1cc2c3c(cccc3c1)C(=O)N(c1ccc(OCCN3CCCC3)cc1)C2=O
inactive: UACC-257 16.2 µM | SF-295 13.5 µM | DU-145 27.4 µM | T47D 21.2 µM | K562 14.5 µM | LOX IMVI 17 µM | MCF7 17.3 µM | HOP-92 17.8 µM | NCI-H460 11.5 µM | TK-10 17.5 µM | OVCAR-3 16 µM | RXF 393 14.2 µM | M14 20.7 µM | HCT-116 14.7 µM | SF-268 21.3 µM | CAKI-1 45.3 µM | SK-OV-3 1.61 µM | SK-MEL-2 19.4 µM

O=C(O)C1Cc2ccccc2OC1=O (centres undefined)
inactive: UACC-257 > 100 µM | SF-295 > 100 µM | DU-145 > 100 µM | T47D > 100 µM | K562 > 100 µM | MCF7 > 100 µM | NCI-H460 > 100 µM | TK-10 > 100 µM | OVCAR-3 > 100 µM | RXF 393 > 100 µM | M14 > 100 µM | HCT-116 > 100 µM | SF-268 > 100 µM | CAKI-1 > 100 µM | SK-OV-3 > 100 µM | SK-MEL-2 > 100 µM

COC(=O)C1C2C=CC(C2)N1S(=O)(=O)c1ccccc1 (centres undefined)
inactive: SF-295 > 100 µM | DU-145 > 100 µM | T47D > 100 µM | K562 > 100 µM | MCF7 > 100 µM | HOP-92 33 µM | NCI-H460 > 100 µM | TK-10 > 100 µM | OVCAR-3 > 100 µM | RXF 393 > 100 µM | M14 > 100 µM | HCT-116 > 100 µM | SF-268 > 100 µM | CAKI-1 > 100 µM | SK-OV-3 > 100 µM | SK-MEL-2 > 100 µM

O=C(O)CCC(C(=O)O)N1C(=O)C2C3CCC(C3)C2C1=O (centres undefined)
inactive: UACC-257 > 100 µM | SF-295 > 100 µM | DU-145 > 100 µM | T47D > 100 µM | K562 > 100 µM | LOX IMVI > 100 µM | MCF7 > 100 µM | HOP-92 > 100 µM | NCI-H460 > 100 µM | TK-10 > 100 µM | OVCAR-3 > 100 µM | RXF 393 > 100 µM | M14 > 100 µM | HCT-116 > 100 µM | SF-268 > 100 µM | CAKI-1 > 100 µM | SK-OV-3 > 100 µM | SK-MEL-2 > 100 µM

CNC(=O)CNC(=O)C(NC(=O)CNC(=O)C1CCCN1C(=O)C(C)NC(=O)C(NC(=O)OC(C)(C)C)C(C)C)C(C)C (centres undefined) (Boc-VAPGVG-NHMe; configuration not given here)
inactive: UACC-257 > 100 µM | SF-295 > 100 µM | DU-145 > 100 µM | T47D > 100 µM | K562 > 100 µM | LOX IMVI > 100 µM | MCF7 > 100 µM | HOP-92 > 100 µM | HL-60 > 100 µM | NCI-H460 > 100 µM | TK-10 > 100 µM | OVCAR-3 > 100 µM | M14 > 100 µM | HCT-116 > 100 µM | SF-268 > 100 µM | CAKI-1 > 100 µM | SK-OV-3 > 100 µM | SK-MEL-2 > 100 µM

C[N+]1(C)C2CC(OC(=O)C(CO)c3ccccc3)CC1C1OC12 (centres undefined)
inactive: UACC-257 > 100 µM | SF-295 > 100 µM | DU-145 > 100 µM | T47D > 100 µM | K562 > 100 µM | LOX IMVI > 100 µM | MCF7 > 100 µM | HL-60 > 100 µM | TK-10 > 100 µM | OVCAR-3 > 100 µM | RXF 393 > 100 µM | M14 > 100 µM | HCT-116 > 100 µM | CAKI-1 > 100 µM | SK-OV-3 > 100 µM | SK-MEL-2 > 100 µM

N#CSc1[nH]cnc1C(N)=O
inactive: UACC-257 > 100 µM | SF-295 > 100 µM | DU-145 > 100 µM | T47D > 75.5 µM | K562 20 µM | LOX IMVI 41.3 µM | HOP-92 > 100 µM | HL-60 2.8 µM | NCI-H460 > 100 µM | TK-10 > 100 µM | OVCAR-3 > 100 µM | RXF 393 > 100 µM | M14 62.7 µM | HCT-116 60 µM | SF-268 > 100 µM | CAKI-1 > 44.4 µM | SK-OV-3 > 100 µM | SK-MEL-2 > 100 µM

CNC(=O)CNC(=O)C(NC(=O)CNC(=O)C1CCCN1C(=O)C(C)NC(=O)C(NC(C)=O)C(C)C)C(C)C (centres undefined) (Ac-VAPGVG-NHMe; configuration not given here)
inactive: UACC-257 > 100 µM | SF-295 > 100 µM | DU-145 > 100 µM | T47D > 100 µM | K562 > 100 µM | LOX IMVI > 100 µM | MCF7 > 100 µM | HOP-92 > 100 µM | HL-60 > 100 µM | NCI-H460 > 100 µM | TK-10 > 100 µM | OVCAR-3 > 100 µM | M14 > 100 µM | HCT-116 > 100 µM | SF-268 > 100 µM | CAKI-1 > 100 µM | SK-OV-3 > 100 µM | SK-MEL-2 > 100 µM

O=C1Oc2ccccc2C(=O)/C1=C/N1C(=O)CNC1=S
inactive: UACC-257 > 100 µM | SF-295 > 100 µM | DU-145 > 100 µM | T47D > 100 µM | K562 > 100 µM | LOX IMVI > 100 µM | MCF7 > 100 µM | HL-60 44 µM | NCI-H460 63 µM | TK-10 > 100 µM | OVCAR-3 > 100 µM | RXF 393 26.9 µM | M14 > 100 µM | HCT-116 > 100 µM | SF-268 > 100 µM | CAKI-1 > 100 µM | SK-OV-3 95.1 µM | SK-MEL-2 > 100 µM

Cc1cc2c(c(S(=O)(=O)c3ccc(Cl)cc3[N+](=O)[O-])c1)NCCC2
inactive: SF-295 53.2 µM | DU-145 94.4 µM | T47D 1.84 µM | LOX IMVI 5.57 µM | MCF7 59.6 µM | HL-60 > 10 µM | NCI-H460 74.1 µM | TK-10 > 100 µM | OVCAR-3 > 100 µM | RXF 393 > 100 µM | M14 41.9 µM | SF-268 99.3 µM | SK-OV-3 > 100 µM | SK-MEL-2 > 100 µM

COc1cc2c(c(OC)c1)C(C)=NC(C)C2 (centres undefined)
inactive: UACC-257 > 100 µM | SF-295 > 100 µM | DU-145 > 100 µM | T47D > 100 µM | K562 > 100 µM | LOX IMVI > 100 µM | MCF7 > 100 µM | HL-60 > 100 µM | NCI-H460 > 100 µM | TK-10 > 100 µM | M14 > 100 µM | HCT-116 51.2 µM | SF-268 > 100 µM | CAKI-1 > 100 µM | SK-OV-3 > 100 µM

Nc1cc(N2CCOCC2)nc(=O)n1-c1ccc(Cl)cc1
inactive: UACC-257 > 100 µM | SF-295 > 100 µM | DU-145 > 100 µM | T47D > 100 µM | K562 > 100 µM | LOX IMVI > 100 µM | MCF7 > 100 µM | HOP-92 > 100 µM | HL-60 8.38 µM | NCI-H460 > 100 µM | OVCAR-3 > 100 µM | M14 > 100 µM | HCT-116 > 100 µM | CAKI-1 > 100 µM | SK-OV-3 > 100 µM | SK-MEL-2 > 100 µM

COc1ccc(Cn2c(=O)c(OS(=O)(=O)C(F)(F)F)c(C)c3cc4ccccc4cc32)cc1
inactive: UACC-257 36 µM | SF-295 > 100 µM | DU-145 > 100 µM | T47D > 100 µM | K562 > 100 µM | LOX IMVI > 100 µM | MCF7 > 100 µM | HL-60 > 100 µM | NCI-H460 > 100 µM | TK-10 > 100 µM | OVCAR-3 > 100 µM | RXF 393 > 100 µM | M14 > 100 µM | HCT-116 > 100 µM | SF-268 > 100 µM | CAKI-1 > 100 µM | SK-OV-3 > 100 µM | SK-MEL-2 > 100 µM

COc1ccc(N2C(=O)CC(C3CC(C(C)(C)C)CCC3=O)C2=O)cc1 (centres undefined)
inactive: UACC-257 > 100 µM | DU-145 > 100 µM | T47D > 100 µM | K562 > 100 µM | MCF7 > 100 µM | HL-60 > 100 µM | NCI-H460 > 100 µM | TK-10 > 100 µM | RXF 393 > 100 µM | M14 > 100 µM | HCT-116 > 100 µM | SF-268 > 100 µM | CAKI-1 > 100 µM | SK-OV-3 > 100 µM
